Values after ≈ are worked out from the molar mass of the structure shown. Like-named read-outs stand apart in the source and are kept apart here.
Tests used:
Assay type in all cases: cell-based
[1] = system: Staphylococcus aureus MSSA (Newman); assay: broth microdilution MIC assay, Staphylococcus aureus MSSA (Newman); conditions: for Antibacterial activity Staphylococcus aureus (MSSA): MIC100 class score, broth microdilution; for MIC: Staphylococcus aureus
[2] = system: Streptococcus pneumoniae (Chester, ATCC49619); assay: broth microdilution MIC assay, Streptococcus pneumoniae; conditions: MIC100 class score, 24 h
[3] = system: Staphylococcus aureus MRSA (COL); assay: broth microdilution MIC assay, Staphylococcus aureus MRSA (COL); conditions: for Antibacterial activity Staphylococcus aureus (MRSA): MIC100 class score, broth microdilution; for MIC: Staphylococcus aureus, MRSA
[4] = system: Human hepatocytes (HepaRG cells); assay: human cytotoxicity assay in vitro (CellTiter-Glo), hepatocytes; conditions: cytotoxicity class
[5] = system: Staphylococcus epidermidis (PCI 1200, ATCC12228); assay: broth microdilution MIC assay, Staphylococcus epidermidis; conditions: ATCC12228, read-out: Antibacterial activity SE (Staphylococcus epidermidis)
[6] = system: penicillin-, erythromycin- and tetracycline-resistant Streptococcus pneumoniae (ATCC 700677), ARSP; assay: microbe, parasite or virus in culture
[7] = system: Bacillus subtilis (Marburg strain, ATCC6051); assay: microbe, parasite or virus in culture; conditions: ATCC6051, read-out: Antibacterial activity BS (Bacillus substilis)
[8] = read-out: Antibacterial activity MSSA (Staphylococcus aureus MSSA)
[9] = read-out: Antibacterial activity MRSA (Staphylococcus aureus MRSA)
[10] = 24 h, read-out: Antibacterial activity Staphylococcus aureus (MSSA)
[11] = 24 h, read-out: Antibacterial activity Staphylococcus aureus (MRSA)
[12] = ATCC700677, read-out: Antibacterial activity ARSP (multi-drug resistant-SP)

| SMILES | MIC [1, 8] [µg/mL] | Antibacterial activity Streptococcus pneumoniae [2] | MIC [3, 9] [µg/mL] | cytotoxicity cell line H (hepatocytes) [4] | MIC [5] [µg/mL] | also measured |
| --- | --- | --- | --- | --- | --- | --- |
| Cc1nc(-c2ccc(-c3ccccc3OC(F)(F)F)o2)[nH]c1-c1ccc(Br)cc1 [Compound 29] | 3 to 10 (≈ 6.48 to 21.6 µM) | 3 (MIC100 of 2-5 μg/ml) | 11 to 201 (≈ 23.7 to 434 µM) | – | – | Antibacterial activity Staphylococcus aureus (MSSA) ([1]; 24 h): 3 (MIC100 of 3-10 μg/ml); Antibacterial activity Staphylococcus aureus (MRSA) ([3]; 24 h): 2 (MIC100 of 11-201 μg/ml) |
| Cc1ccccc1-c1ccc(-c2nc(-c3ccccc3)c(C)[nH]2)o1 [Compound 61] | – | – | – | 3 | – | – |
| Cc1nc(-c2ccc(-c3cccc(Cl)c3)o2)[nH]c1-c1ccccc1 [Compound 4] | 1 to 3 (≈ 2.99 to 8.96 µM) | – | 11 to 201 (≈ 32.9 to 600 µM) | – | 3 to 10 (≈ 8.96 to 29.9 µM) | MIC [1, 10]: 1 to 3 µg/mL (≈ 2.99 to 8.96 µM); MIC [3, 11]: 11 to 201 µg/mL (≈ 32.9 to 600 µM) |
| Cc1[nH]c(-c2coc(-c3ccccc3C(F)(F)F)c2)nc1-c1ccccc1 [Compound 72] | – | 2 (MIC100 of 6-10 μg/ml) | – | 3 | – | – |
| Cc1nc(-c2ccc(-c3ccccc3C(F)(F)F)o2)[nH]c1-c1ccccc1Cl [Compound 20] | 20 to 50 (≈ 49.7 to 124 µM) | – | – | 3 | – | MIC ([6]; ATCC700677, MIC activity class, read-out: Antibacterial activity ARSP (multi-drug resistant-SP)): 2 to 5 µg/mL (≈ 4.97 to 12.4 µM); MIC [7]: 20 to 50 µg/mL (≈ 49.7 to 124 µM) |
| Cc1[nH]c(-c2ccc(-c3ccccc3OC(F)(F)F)o2)nc1-c1ccc(C(F)(F)F)cc1 [Compound 26] | – | 3 (MIC100 of 2-5 μg/ml) | – | – | – | MIC [6, 12]: 6 to 10 µg/mL (≈ 13.3 to 22.1 µM) |
| Cc1[nH]c(-c2cc(C)n(-c3ccc(C(C)C)cc3)c2C)nc1-c1ccccc1 [Compound 58] | – | – | 20 to 50 (≈ 54.1 to 135 µM) | 3 | – | – |
| Cc1nc(-c2ccc(-c3ccc(Cl)cc3C(F)(F)F)o2)[nH]c1-c1ccccc1 [Compound 32] | 1 to 3 (≈ 2.48 to 7.45 µM) | – | 3 to 10 (≈ 7.45 to 24.8 µM) | 2 | 3 to 10 (≈ 7.45 to 24.8 µM) | MIC [1, 10]: 1 to 3 µg/mL (≈ 2.48 to 7.45 µM); MIC [3, 11]: 3 to 10 µg/mL (≈ 7.45 to 24.8 µM) |
| Cc1[nH]c(-c2ccc(-c3ccccc3C(F)(F)F)o2)nc1-c1ccc(Br)cc1 [Compound 25] | – | 3 (MIC100 of 2-5 μg/ml) | – | – | – | MIC [7]: 20 to 50 µg/mL (≈ 44.7 to 112 µM) |
| Cc1[nH]c(-c2ccc(-c3ccccc3Cl)o2)nc1-c1ccccc1 [Compound 3] | 3 to 10 (≈ 8.96 to 29.9 µM) | – | 11 to 201 (≈ 32.9 to 600 µM) | 3 | 11 to 201 (≈ 32.9 to 600 µM) | MIC [1, 10]: 3 to 10 µg/mL (≈ 8.96 to 29.9 µM); MIC [3, 11]: 11 to 201 µg/mL (≈ 32.9 to 600 µM) |
| Cc1[nH]c(-c2ccc(-c3ccc(C(F)(F)F)c(Cl)c3)o2)nc1-c1ccc(F)cc1 [Compound 49] | 3 to 10 (≈ 7.13 to 23.8 µM) | 3 (MIC100 of 2-5 μg/ml) | 3 to 10 (≈ 7.13 to 23.8 µM) | 3 | 11 to 201 (≈ 26.1 to 478 µM) | MIC [6, 12]: < 1 µg/mL; Antibacterial activity Staphylococcus aureus (MSSA) ([1]; 24 h): 3 (MIC100 of 3-10 μg/ml); Antibacterial activity Staphylococcus aureus (MRSA) ([3]; 24 h): 2 (MIC100 of 11-201 μg/ml) |
| FC(F)(F)Oc1ccccc1-c1ccc(-c2nc(-c3ccccc3Cl)c[nH]2)o1 [Compound 67] | – | 3 (MIC100 of 2-5 μg/ml) | – | 2 | 11 to 201 (≈ 27.2 to 497 µM) | MIC [6, 12]: 6 to 10 µg/mL (≈ 14.8 to 24.7 µM) |
| Cc1[nH]c(-c2cc(C)n(-c3ccc4c(c3)CCC4)c2C)nc1-c1ccccc1 [Compound 59] | – | 3 (MIC100 of 2-5 μg/ml) | – | 2 | – | – |
| Cc1[nH]c(-c2ccn(-c3ccccc3C(F)(F)F)c2)nc1-c1ccccc1 [Compound 33] | 3 to 10 (≈ 8.17 to 27.2 µM) | 2 (MIC100 of 6-10 μg/ml) | 20 to 50 (≈ 54.4 to 136 µM) | – | 11 to 201 (≈ 29.9 to 547 µM) | Antibacterial activity Staphylococcus aureus (MSSA) ([1]; 24 h): 3 (MIC100 of 3-10 μg/ml) |
| Cc1[nH]c(-c2ccc(-c3cc(C(F)(F)F)ccc3Cl)o2)nc1-c1ccccc1 [Compound 40] | – | – | – | 2 | – | – |
| Cc1nc(-c2ccc(-c3ccccc3N(C)C)o2)[nH]c1-c1ccccc1 [Compound 71] | – | – | – | 3 | – | – |
| CCc1ccc(-c2[nH]c(-c3ccc(-c4ccccc4C(F)(F)F)o3)nc2C)cc1 [Compound 28] | 20 to 50 (≈ 50.5 to 126 µM) | 3 (MIC100 of 2-5 μg/ml) | 20 to 50 (≈ 50.5 to 126 µM) | – | – | MIC [7]: 1 to 3 µg/mL (≈ 2.52 to 7.57 µM) |
| Cc1nc(-c2ccc(-c3ccc(F)cc3F)o2)[nH]c1-c1ccc(O)cc1 [Compound 80] | – | 3 (MIC100 of 2-5 μg/ml) | – | – | – | Antibacterial activity Staphylococcus aureus (MSSA) ([1]; 24 h): 3 (MIC100 of 3-10 μg/ml); Antibacterial activity Staphylococcus aureus (MRSA) ([3]; 24 h): 2 (MIC100 of 11-201 μg/ml) |
| Cc1ccc(-c2ccc(-c3nc(-c4ccccc4)c(C)[nH]3)o2)cc1 [Compound 52] | – | – | – | 3 | – | MIC [3, 11]: 20 to 50 µg/mL (≈ 63.6 to 159 µM) |
